# Reference: patent US20160213729A1, “FILIPENDULA VULGARIS EXTRACT AND USES THEREOF” (ABOCA S.P.A. SOCIETA' AGRICOLA, priority 2013, published 2016)
# Assays:
# Assay type in all cases: cell-based, human
# [1] = tested on: mesothelioma cell lines MPM MSTO211H; assay: Cell vitality (ATPlite) in co-treatment with pemetrexed, MSTO211H
# Method: (§1) Cell lines MSTO211H and NCl-H2052 were used to evaluate the effects of the association of extract of Filipendula vulgaris±anti-tumour drug.
# (§2) The assay shown in FIG. 10 was performed using ATPlite™ assay (Perkin Elmer) in accordance with the producer's instructions.
# (§3) A solution of water for injectable solutions and ethanol at a concentration of 1:1 was used in the same volumes used for the treatments.
# (§4) pemetrexed (Alimta, Lilly) diluted in accordance with the producer's instructions.
# (§5) The concentrations of the assayed compound are plotted on the abscissa, whereas the cell vitality expressed in percentage is plotted on the ordinate.
# [2] = tested on: mesothelioma cell lines MPM NCl-H2052; assay: Cell vitality (ATPlite) in co-treatment with pemetrexed, NCl-H2052
# Method: as §1, §2, §3, §4, §5
# mesothelial cells (HMC) = assay: Cell vitality (ATPlite) in co-treatment with pemetrexed, HMC; settings: pemetrexed alone
# Method: as §2, §3, §4, §5
# [3] = tested on: untransformed normal mesothelial cells (HMC); assay: Comet assay, HMC; settings: single agent
# Method: (§6) After the treatment, the cells were trypsinized and immersed in 1% low-melting agarose (Sigma) in PBS and spread onto microscope slides coated beforehand with 1% agarose (Bio-Rad). The cells were lysed in the lysis solution (2.5 M NaCl, 100 mM EDTA, 10 mM Tris base, 8 g/l NaOH, 1% Triton X-100, 10% DMSO) for 1 hour at room temperature and then run into the running solution (300 mM NaOH, 1 mM EDTA, pH 13.0) for 30 minutes, at 25 V and 250 mA. DNA was balanced with 0.4 M Tris, pH 8.0, and the slides dried with methanol. Propidium iodide-DNA (Sigma) and the figures images were taken by using an Axiovert 200M microscope with 40× magnification and an Axiovision (Zeiss) image acquisition software. At least 300 cells per each slide were recorded.
# MSTO211H cells = assay: Comet assay, MSTO211H; settings: single agent
# Method: as §6
Structure (SMILES),concentration of pemetrexed sufficient to lower the cell vitality in double treatment ([1]; double treatment with extract 6 μg/ml),"cell vitality, single agent ([1]; pemetrexed alone)","concentration of pemetrexed sufficient to lower the cell vitality in double treatment ([2]; NCl-H2052, double treatment with extract 6 μg/ml)","cell vitality, single agent ([2]; NCl-H2052, pemetrexed alone)","toxicity for non-tumour cells, single agent (mesothelial cells (HMC))",DNA damage / fragmentation [3],DNA damage / fragmentation (MSTO211H cells)
"Nc1nc2[nH]cc(CCc3ccc(C(=O)N[C@@H](CCC(=O)O)C(=O)O)cc3)c2c(=O)[nH]1 [PMTX, pemetrexed]",10 µM,cytotoxic for the MPM cells,10 µM,cytotoxic for the MPM cells,highly toxic for the non-tumour cells,–,–
"N.N.[Cl][Pt][Cl] [CDDP, cis-diamminedichloroplatinum]",–,–,–,–,–,induces DNA fragmentation,induces DNA fragmentation
